Measurements taken from patent EP4361157A1, “FUSED TETRACYCLIC COMPOUND, PREPARATION METHOD THEREFOR AND APPLICATION THEREOF IN MEDICINE” (Jiangsu Hengrui Pharmaceuticals Co., Ltd., priority 2021, dated 2022).

Tests used:
Assay type in all cases: cell-based
AGS cells [1] = test: Inhibition of ERK phosphorylation of AGS cells (HTRF method); settings: phosphorylated ERK/total ERK ratio, 1 h incubation
Experimental: AGS cells (Nanjing Cobioer, CBP60476) were cultured in RPMI1640 (Hyclone, SH30809.01) complete medium containing 10% fetal bovine serum. On the first day of the experiment, the AGS cells were seeded into a 96-well plate with complete medium at a density of 40,000 cells/well to form 190 µL of cell suspension per well. The plate was incubated overnight in a cell incubator at 37 °C with 5% CO2.
The next day, 10 µL of serially-diluted test compound prepared from the complete medium was added to each well. The final concentrations of the compound were 9 concentration points obtained by 5-fold serial dilution from 10 µM. A blank control containing 0.5% DMSO was set. The well plate was incubated in a cell incubator at 37 °C with 5% CO2 for 1 h. After completion of incubation, the 96-well cell culture plate was taken out, the medium was removed by pipetting, 200 µL PBS (Shanghai BasalMedia Technologies Co., Ltd., B320) was added to each well, and the cells were washed once. PBS was removed by pipetting, 50 µL of lysis buffer (Cisbio, 64KL1FDF) containing a blocking solution (blocking reagent, Cisbio, 64KB1AAC) was added to each well, and the well plate was lysed on a shaker for 40 min at room temperature with shaking. After lysis, the lysate was pipetted and mixed well, 16 µL of lysate was transferred to two HTRF 96-well assay plates (Cisbio, 66PL96100) per well, and then 4 µL of premixed phosphorylated ERK1/2 antibody solution (Cisbio, 64AERPEG) or 4 µL of premixed total ERK1/2 antibody solution (Cisbio, 64NRKPEG) was added to these two plates. The microplate was sealed with a sealing membrane, centrifuged for 1 min in a microplate centrifuge, and incubated overnight at room temperature in the dark. On the third day, the fluorescence values at an excitation wavelength of 337 nm and at emission wavelengths of 665 nm and 620 nm were read using an ENVISION multifunctional microplate reader (PerkinElmer, ENVISION).
Table 1. Inhibitory activity data for ERK phosphorylation of AGS cells

GP2d cells = test: Inhibition of 3D proliferation of GP2d cells (CellTiter-Glo 3D); settings: 120 h incubation
Experimental: GP2d cells (Nanjing Cobioer, CBP60010) were cultured in a complete medium, namely DMEM/high glucose medium (Hyclone, SH30243.01) containing 10% fetal bovine serum (Corning, 35-076-CV). On the first day of the experiment, GP2d cells were seeded into a 96-well low adsorption plate (Corning, CLS7007-24EA) with complete medium at a density of 1,000 cells/well to form 90 µL of cell suspension per well. The plate was centrifuged at 2,000 rpm for 5 min at room temperature and then incubated overnight in a cell incubator at 37 °C with 5% CO2.
(§1) The next day, 10 µL of serially-diluted test compound prepared from the complete medium was added to each well. The final concentrations of the compound of GP2d cells were 9 concentration points obtained by 3-fold serial dilution from 1 µM, and the final concentrations of the compound of AGS cells were 9 concentration points obtained by 3-fold serial dilution from 10 µM. A blank control containing 0.5% DMSO was set. The well plate was incubated in a cell incubator at 37 °C with 5% CO2 for 120 h. On the seventh day, the 96-well cell culture plate was taken out, 50 µL CellTiter-Glo® 3D reagent (Promega, G9682) was added into each well, the plate was shaken at room temperature for 25 min, pipetted and mixed well, 50 µL of the solution was transferred into a white impermeable 96-well plate (PE, 6005290), and the luminescence signal values were read using a multifunctional microplate reader (PerkinElmer, ENVISION).
(§2) Table 2. Inhibitory activity data for 3D proliferation of AGS and GP2d cells

AGS cells [2] = test: Inhibition of 3D proliferation of AGS cells (CellTiter-Glo 3D); settings: Homo sapiens, 120 h incubation
Experimental: AGS cells (Nanjing Cobioer, CBP60476) were cultured in a complete medium, namely RPMI1640 medium (Hyclone, SH30809.01) containing 10% fetal bovine serum (Corning, 35-076-CV). On the first day of the experiment, the AGS cells were seeded into a 96-well low adsorption plate (Corning, CLS7007-24EA) at a density of 1,000 cells/well using complete medium to form 90 µL of cell suspension per well. The plate was centrifuged at 2,000rpm for 5 min at room temperature and then incubated overnight in a cell incubator at 37 °C with 5% CO2.
as §1, §2

Compound | IC50 (AGS cells [1]; Homo sapiens, AGS) | IC50 (GP2d cells) | IC50 (AGS cells [2]) | IC50 (AGS cells [1])
CCc1c(F)ccc2cc(O)cc(-c3nc4c5c(nc(OCC6(CN7C[C@H]8C[C@H]8[C@@H]7CO)CC6)nc5c3F)N3C[C@H]5CC[C@H](N5)[C@H]3CO4)c12 [Example 21, 5 -Ethyl-6-fluoro-4-((5aS,6S,9R)-1-fluoro-12-((1-(((1R,2R,5S)-2-(hydroxymethyl)-3-azabicyclo[3.1.0]hex-3-yl)methyl)cyclopropyl)methoxy)-5a,6,7,8,9,10-hexahydro-5H-4-oxa-3,10a,11,13,14-pentaaza-6,9-methanonaphtho[1,8-ab]heptalen-2-yl)naphthalen-2-ol] | 8.1 nM | 14.7 nM | – | –
CCc1c(F)ccc2cc(O)cc(-c3nc4c5c(nc(OCC6(CN7CCC[C@H]7COC(=O)N(C)C)CC6)nc5c3F)N3C[C@H]5CC[C@H](N5)[C@H]3CO4)c12 [Example 25, ((S)-1-((1-((((5aS,6S,9R)-2-(8-ethyl-7-fluoro-3-hydroxynaphthalen-1-yl)-1-fluoro-5a,6,7,8,9,10-hexahydro-5H-4-oxa-3,10a,11,13,14-pentaaza-6,9-methanonaphtho[1,8-ab]heptalen-12-yl)oxy)methyl)cyclopropyl)methyl)pyrrolidin-2-yl)methyl dimethylcarbamate] | 23.5 nM | 48.5 nM | – | –
Oc1cc(Cl)c(C2CC2)c(-c2nc3c4c(nc(OC[C@@]56CCCN5C[C@H](F)C6)nc4c2F)N2C[C@H]4CC[C@H](N4)[C@H]2CO3)c1 [Example 6-p1, 3-Chloro-4-cyclopropyl-5-((5aS,6S,9R)-1-fluoro-12-(((2R,7aS)-2-fluorotetrahydro-1H-pyrrolizin-7a(5H)-yl)methoxy)-5a,6,7,8,9,10-hexahydro-5H-4-oxa-3,10a,11,13,14-pentaaza-6,9-methanonaphtho[1,8-ab]heptalen-2-yl)phenol] | 1.2 nM | 7.2 nM | 32.9 nM | –
CCc1cccc2cc(O)cc(-c3nc4c5c(nc(OC[C@@]67CCCN6C[C@H](F)C7)nc5c3F)N3C[C@H]5CC[C@H](N5)[C@H]3CO4)c12 [Example 4-p1, 5-Ethyl-4-((5aS,6S,9R)-1-fluoro-12-(((2R,7aS)-2-fluorotetrahydro-1H-pyrrolizin-7a(5H )-yl)methoxy)-5a,6,7,8,9,10-hexahydro-5H-4-oxa-3,10a,11,13,14-pentaaza-6,9-methanonaphtho[1,8-ab]heptalen-2-yl)naphthalen-2-ol] | 2 nM | 0.8 nM | 14.5 nM | –
CCc1c(F)ccc2cc(O)cc(-c3nc4c5c(nc(OCC6(CN7C[C@@H]8C[C@@H]8[C@@H]7CO)CC6)nc5c3F)N3C[C@H]5CC[C@H](N5)[C@H]3CO4)c12 [Example 19, 5 -Ethyl-6-fluoro-4-((5aS,6S,9R)-1-fluoro-12-((1-(((1S,2R,5R)-2-(hydroxymethyl)-3-azabicyclo[3.1.0]hex-3-yl)methyl)cyclopropyl)methoxy)-5a,6,7,8,9,10-hexahydro-5H-4-oxa-3,10a,11,13,14-pentaaza-6,9-methanonaphtho[1,8-ab]heptalen-2-yl)naphthalen-2-ol] | 31.1 nM | 28.9 nM | – | –
CCc1cccc2cc(O)cc(-c3cc4nc(OC[C@@]56CCCN5C[C@H](F)C6)nc5c4c(n3)OCC3C4CCC(CN53)N4)c12 (mixture of isomers) [Diastereomeric (1:1) mixture of 2-p1 and 2-p2] | 6.6 nM | 19.9 nM | – | –
CCc1cccc2cc(O)cc(-c3cc4c5c(nc(OC[C@@]67CCCN6C[C@H](F)C7)nc5c3F)N3CC5CCC(N5)C3CO4)c12 (single isomer, unassigned) [Diastereomeric (1:1) mixture of 11-p1 and 11-p2] | – | 62.5 nM | – | 15.6 nM
CCc1c(F)ccc2cc(O)cc(-c3nc4c5c(nc(OCC6(CN7CCC[C@@H]7CO)CC6)nc5c3F)N3C[C@H]5CC[C@H](N5)[C@H]3CO4)c12 [Example 15, 5-Ethyl-6-fluoro-4-((5aS,6S,9R)-1-fluoro-12-((1-(((R)-2-(hydroxymethyl)pyrrolidin-1-yl)methyl)cyclopropyl)methoxy)-5a,6,7,8,9,10-hexahydro-5H-4-oxa-3,10a,11,13,14-pentaaza-6,9-methanonaphtho[1,8-ab]heptalen-2-yl)naphthalen-2-ol] | 13.4 nM | 7.2 nM | – | –
